Measurements reported in ChEMBL document CHEMBL5579901, “Discovery of Novel [1,2,4]Triazolo[1,5-a]pyrimidine Derivatives as Novel Potent S-Phase Kinase-Associated Protein 2 (SKP2) Inhibitors for the Treatment of Cancer” (J Med Chem, 2024).
Calls of active or inactive are those of the source. The rule behind the calls is not given here.

Legend:
MGC-803 [1] = test: Induction of cell cycle arrest in human MGC-803 cells assessed as cells at S phase at 15 uM incubated for 24 hrs by PI staining based flow cytometry (reference value: 19.6%); type: functional
PC-3 [2] = test: Inhibition of cell proliferation in human PC-3 cells incubated for 72 hrs by MTT assay; type: functional, cell-based; details: PC-3, 72 h
MGC-803 [3] = test: Antitumor activity against human MGC-803 cells xenografted in IG dosed NOD-SCID mouse assessed as inhibition of tumor proliferation administered for 21 days; type: functional, organism-based; details: dose 25-50 mg/kg, time 21.0 day
PC-3 [4] = test: Downregulation of SKP2 protein level in human PC-3 cells incubated for 48 hrs by Western blotting analysis; type: functional, cell-based; details: dose 5-15 µM
[5] = Toxicity against NOD-SCID mouse assessed as change in heart morphology at 25 to 50 mg/kg, IG administered for 21 days by H and E staining based assay; type: organism-based; details: in vivo, po, 504 h, dose 25-50 mg/kg, time 21 day
PC-3 [6] = test: Upregulation of p21 protein expression in human PC-3 cells at 5 to 15 uM incubated for 48 hrs by Western blotting analysis; type: functional, cell-based; details: dose 5-15 µM
PC-3 [7] = test: Induction of cell cycle arrest in human PC-3 cells assessed as cells at G0/G1 phase at 15 uM incubated for 12 hrs by PI staining based flow cytometry (reference value: 55.1%); type: functional
PC-3 [8] = test: Induction of cell cycle arrest in human PC-3 cells assessed as cells at G0/G1 phase at 15 uM incubated for 48 hrs by PI staining based flow cytometry (reference value: 55.1%); type: functional
PC-3 [9] = test: Induction of cell cycle arrest in human PC-3 cells assessed as cells at G2/M phase at 5 uM incubated for 36 hrs by PI staining based flow cytometry (reference value: 21.3%); type: functional
MGC-803 [10] = test: Induction of cell cycle arrest in human MGC-803 cells assessed as cells at S phase at 15 uM incubated for 36 hrs by PI staining based flow cytometry (reference value: 18.2%); type: functional
MGC-803 [11] = test: Upregulation of p21 protein expression in human MGC-803 cells at 15 uM by Western blotting analysis; type: functional, cell-based; details: time 6-48 hrs, TDE = time-dependent effect
PC-3 [12] = test: Induction of cell cycle arrest in human PC-3 cells assessed as cells at G2/M phase at 7.5 uM incubated for 36 hrs by PI staining based flow cytometry (reference value: 21.3%); type: functional
[13] = AUClast in Sprague-Dawley rat at 50 mg/kg, po measured upto 24 hrs by LC/MS-MS analysis; type: ADME, organism-based; details: in vivo
MGC-803 [14] = test: Antitumor activity against human MGC-803 cells xenografted in NOD-SCID mouse assessed as tumor growth inhibition at 25 mg/kg, IG administered for 21 days; type: functional; details: MGC-803, po, 504 h, time 21 day, read-out: TGI
[15] = AUCinfinity in Sprague-Dawley rat at 50 mg/kg, po measured upto 24 hrs by LC/MS-MS analysis; type: ADME, organism-based; details: in vivo
PC-3 [16] = test: Inhibition of DNA synthesis in human PC-3 cells incubated for 24 hrs by EdU staining based fluorescence microscopic analysis; type: functional, cell-based
MGC-803 [17] = test: Downregulation of SKP2 protein level in human MGC-803 cells incubated for 48 hrs by Western blotting analysis; type: functional, cell-based; details: dose 5-15 µM
[18] = Half-life in Sprague-Dawley rat at 1 mg/kg, iv measured upto 24 hrs by LC/MS-MS analysis; type: ADME, organism-based; details: in vivo
MGC-803 [19] = test: Induction of cell cycle arrest in human MGC-803 cells assessed as cells at G2/M phase at 15 uM incubated for 12 hrs by PI staining based flow cytometry (reference value: 20.8%); type: functional
PC-3 [20] = test: Induction of cell cycle arrest in human PC-3 cells assessed as cells at G0/G1 phase at 7.5 uM incubated for 36 hrs by PI staining based flow cytometry (reference value: 54.5%); type: functional
MGC-803 [21] = test: Inhibition of cell proliferation in human MGC-803 cells incubated for 24 to 72 hrs by MTT assay; type: functional, cell-based; details: dose 2-50 µM, time 24-72 hrs
MGC-803 [22] = test: Inhibition of cell invasion in human MGC-803 cells incubated for 48 hrs by […]; type: functional, cell-based; details: dose 2.5-7.5 µM
MGC-803 [23] = test: Inhibition of cell migration in human MGC-803 cells incubated for 48 hrs by wound healing assay; type: functional, cell-based; details: dose 2.5-7.5 µM
[24] = Toxicity against NOD-SCID mouse assessed as change in kidney morphology at 25 to 50 mg/kg, IG administered for 21 days by H and E staining based assay; type: organism-based; details: in vivo, po, 504 h, dose 25-50 mg/kg, time 21 day
MGC-803 [25] = test: Induction of cell cycle arrest in human MGC-803 cells assessed as cells at G2/M phase at 15 uM incubated for 48 hrs by PI staining based flow cytometry (reference value: 20.8%); type: functional
PC-3 [26] = test: Upregulation of p27 protein expression in human PC-3 cells at 5 to 15 uM incubated for 48 hrs by Western blotting analysis; type: functional, cell-based; details: dose 5-15 µM
MGC-803 [27] = test: Inhibition of cell proliferation in human MGC-803 cells at 2 to 50 uM by MTT assay; type: functional, cell-based; details: dose 2-50 µM, time 24-72 hrs, TDE = time-dependent effect
PC-3 [28] = test: Inhibition of colony formation in human PC-3 cells at 3 uM incubated for 10 days by crystal violet staining based inverted microscopic analysis; type: functional, cell-based; details: time 10.0 day
PC-3 [29] = test: Induction of cell cycle arrest in human PC-3 cells assessed as cells at G2/M phase at 15 uM incubated for 6 hrs by PI staining based flow cytometry (reference value: 21.4%); type: functional
[30] = molecular target: Cyclin-dependent kinases regulatory subunit 1/S-phase kinase-associated protein 2 (Homo sapiens) (UniProt P61024+Q13309); test: Inhibition of GST-tagged SKP2 (unknown origin) binding to His6-tagged CKS1 (unknown origin) at 50 uM preincubated with SKP2 for 10 mins followed by CKS1 addition for 20 mins and measured after by HTRF method relative to control; type: protein assay; details: time 30.0 min
Sequence of Cyclin-dependent kinases regulatory subunit 1/S-phase kinase-associated protein 2 (Homo sapiens) (P61024 2-79 limits assumed): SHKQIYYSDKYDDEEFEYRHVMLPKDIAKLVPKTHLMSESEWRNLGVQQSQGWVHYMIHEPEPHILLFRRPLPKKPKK
Sequence of Cyclin-dependent kinases regulatory subunit 1/S-phase kinase-associated protein 2 (Homo sapiens) (Q13309 whole entry partner): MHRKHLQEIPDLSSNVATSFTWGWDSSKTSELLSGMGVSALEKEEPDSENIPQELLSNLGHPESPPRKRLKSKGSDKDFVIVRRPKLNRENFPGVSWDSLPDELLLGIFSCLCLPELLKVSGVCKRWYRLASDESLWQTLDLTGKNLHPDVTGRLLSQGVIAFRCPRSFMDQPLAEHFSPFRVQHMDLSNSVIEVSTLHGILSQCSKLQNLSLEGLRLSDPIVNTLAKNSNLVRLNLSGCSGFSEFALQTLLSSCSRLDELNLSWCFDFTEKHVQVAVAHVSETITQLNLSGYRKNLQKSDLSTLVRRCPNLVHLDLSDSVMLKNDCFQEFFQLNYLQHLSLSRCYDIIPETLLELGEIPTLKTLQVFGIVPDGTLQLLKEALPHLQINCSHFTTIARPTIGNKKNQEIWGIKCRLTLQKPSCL

PC-3 [31] = test: Induction of cell cycle arrest in human PC-3 cells assessed as cells at S phase at 15 uM incubated for 6 hrs by PI staining based flow cytometry (reference value: 22.9%); type: functional
PC-3 [32] = test: Induction of cell cycle arrest in human PC-3 cells assessed as cells at G2/M phase at 15 uM incubated for 36 hrs by PI staining based flow cytometry (reference value: 21.3%); type: functional
PC-3 [33] = test: Induction of cell cycle arrest in human PC-3 cells assessed as cells at G0/G1 phase at 15 uM incubated for 6 hrs by PI staining based flow cytometry (reference value: 55.1%); type: functional
MGC-803 [34] = test: Upregulation of p21 protein expression in human MGC-803 cells at 5 to 15 uM incubated for 48 hrs by Western blotting analysis; type: functional, cell-based; details: dose 5-15 µM
[35] = MRT(infinity) in Sprague-Dawley rat at 1 mg/kg, iv measured upto 24 hrs by LC/MS-MS analysis; type: ADME, organism-based; details: in vivo
MGC-803 [36] = test: Induction of cell cycle arrest in human MGC-803 cells assessed as cells at G0/G1 phase at 15 uM incubated for 6 hrs by PI staining based flow cytometry (reference value: 57.9%); type: functional
PC-3 [37] = test: Induction of cell cycle arrest in human PC-3 cells assessed as cells at G2/M phase at 15 uM incubated for 48 hrs by PI staining based flow cytometry (reference value: 21.4%); type: functional

COc1ccc(-c2cc(C)nc3nc(SCc4ccc(Br)cc4)nn23)c(OC)c1
Activity (MGC-803 [1]): 38.9%
IC50 (PC-3 [2]): 11.7 µM
Activity (MGC-803 [3]): Dose-Dependent Effect
Activity (PC-3 [4]): Dose-Dependent Effect
Activity [5]: Non-Toxic
Activity (PC-3 [6]): Active
Activity (PC-3 [7]): 48.3%
Activity (PC-3 [8]): 36.9%
Activity (PC-3 [9]): 19.9%
Activity (MGC-803 [10]): 44.3%
Activity (MGC-803 [11]): Tde
Activity (PC-3 [12]): 21.9%
AUC(0-t) at 24 h [13]: 906 ng·h/mL
inhibition in vivo at 25 mg/kg (MGC-803 [14]): 50.9%
AUC(0-inf) [15]: 1070 ng·h/mL
inhibition (PC-3 [16]): Dose-Dependent Effect
Activity (MGC-803 [17]): Dose-Dependent Effect
t1/2 [18]: 1.49 h
Activity (MGC-803 [19]): 21.6%
Activity (PC-3 [20]): 39%
inhibition (MGC-803 [21]): Dose-Dependent Effect
inhibition (MGC-803 [22]): Dose-Dependent Effect
inhibition (MGC-803 [23]): Dose-Dependent Effect
Activity [24]: Non-Toxic
Activity (MGC-803 [25]): 20.1%
Activity (PC-3 [26]): Active
inhibition (MGC-803 [27]): Tde
inhibition (PC-3 [28]): Active
Activity (PC-3 [29]): 20.3%
inhibition [30]: 73.7%
Activity (PC-3 [31]): 26.7%
Activity (PC-3 [32]): 16.3%
Activity (PC-3 [33]): 52.8%
Activity (MGC-803 [34]): Active
MRT [35]: 6.28 h
Activity (MGC-803 [36]): 49.7%
Activity (PC-3 [37]): 22.5%
